Like-named read-outs stand apart in the source and are kept apart here.
How the values were obtained:
[1] = biological target: Avi-tagged FL MALT-1 (Homo sapiens (Human), UniProt Q9UDY8); experiment: MALT-1 Fluorogenic Peptide Cleavage Assay (MALT1 inhibition assay); assay type: biochemical; details: Ac-LRSR-AMC peptide substrate, 30 min pre-incubation, 90 min reaction at room temperature
Summary of the method: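 Full-length Avi-tagged human MALT-1 (40 nM working stock) pre-incubated 30 min at RT with compound in 25 mM HEPES pH 6.89, 660 mM sodium citrate, 1 mM TCEP, […], 0.05% CHAPS, 2% DMSO. Ac-LRSR-AMC added at Km (50 μM working stock) or 10×Km (280 μM working stock); 90 min at RT, AMC fluorescence (ex 342/em 441 nm), IC50 from % inhibition curves.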

[2] = tested on: NF-kB reporter in Jurkat cells; experiment: NF-kB reporter assay in Jurkat cells stimulated with aCD3/aCD28/PMA; assay type: cell-based; details: Homo sapiens, read-out: NF-kB Reporter Assay IC50
Summary of the method: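 Jurkat cells (25,000/well, serum-free RPMI) were pre-incubated 1 h at 37° C with serially diluted compound, then stimulated 4 h with aCD3/aCD28/PMA at final […]. NF-kB reporter activity was read by One-Glo luminescence; IC50 values reported.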

[3] = Jurkat cells, 1 hr compound pre-incubation, aCD3/aCD28/PMA stimulation 4 hr, One-Glo readout

Avi-tagged FL MALT-1, sequence (Q9UDY8 whole entry): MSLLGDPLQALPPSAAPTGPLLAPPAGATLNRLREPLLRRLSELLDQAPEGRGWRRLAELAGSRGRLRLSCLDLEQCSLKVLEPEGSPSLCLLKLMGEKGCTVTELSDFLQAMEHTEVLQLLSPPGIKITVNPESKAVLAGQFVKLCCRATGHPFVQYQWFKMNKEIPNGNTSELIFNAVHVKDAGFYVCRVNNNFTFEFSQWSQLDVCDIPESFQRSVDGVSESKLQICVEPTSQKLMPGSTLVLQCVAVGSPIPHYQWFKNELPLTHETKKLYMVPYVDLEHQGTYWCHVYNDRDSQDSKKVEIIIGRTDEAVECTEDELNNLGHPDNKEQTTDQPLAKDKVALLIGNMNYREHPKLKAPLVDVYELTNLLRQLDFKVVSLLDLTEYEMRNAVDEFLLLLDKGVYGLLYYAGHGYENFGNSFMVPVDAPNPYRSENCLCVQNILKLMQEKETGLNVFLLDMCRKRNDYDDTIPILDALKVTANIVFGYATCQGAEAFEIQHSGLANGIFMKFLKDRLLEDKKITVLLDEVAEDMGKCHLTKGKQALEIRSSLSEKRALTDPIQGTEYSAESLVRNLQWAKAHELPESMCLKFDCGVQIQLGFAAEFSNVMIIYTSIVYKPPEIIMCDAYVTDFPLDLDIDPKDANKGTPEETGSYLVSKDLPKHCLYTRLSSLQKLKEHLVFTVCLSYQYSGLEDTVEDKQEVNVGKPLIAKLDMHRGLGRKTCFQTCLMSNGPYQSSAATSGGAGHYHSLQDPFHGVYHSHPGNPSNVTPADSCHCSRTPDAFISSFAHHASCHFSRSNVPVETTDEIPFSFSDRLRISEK

Row | SMILES | IC50 [1] [nM] | IC50 [2, 3] [nM] | IC50 ([2]; Jurkat) [nM]
1 | COc1ccc2cnn(C)c2c1NS(=O)(=O)c1cnn(-c2ccnc(C3CC3)c2)c1 [Compound I-77, 1-(2-Cyclopropylpyridin-4-yl)-N-(6-Methoxy-1-Methyl-1H-Indazol-7-yl)-1H-Pyrazole-4-Sulfonamide] | ≤ 400 | < 400 | 
2 | CCc1ccc2[nH]nc(C)c2c1N(C)S(=O)(=O)c1cnn(-c2cc(C)ccn2)c1 [Compound I-78, N-(5-Ethyl-3-Methyl-1H-Indazol-4-yl)-N-Methyl-1-(4-Methylpyridin-2-yl)Pyrazole-4-Sulfonamide] | ≤ 400 | 400 to 1000 | 
3 | COc1ccc2[nH]nc(C)c2c1NS(=O)(=O)c1cnn(-c2ccnc(C(F)(F)F)c2)c1 [Compound I-79, N-(5-Methoxy-3-Methyl-1H-Indazol-4-yl)-1-(2-(Trifluoromethyl)Pyridin-4-yl)-1H-Pyrazole-4-Sulfonamide] | ≤ 400 | < 400 | 
4 | COc1ccc2[nH]nc(C)c2c1N(C)S(=O)(=O)c1cnn(-c2ccnc(C(F)(F)F)c2)c1 [Compound I-80, N-(5-methoxy-3-Methyl-1H-Indazol-4-yl)-N-Methyl-1-(2-(Trifluoromethyl)Pyridin-4-yl)-1H-Pyrazole-4-Sulfonamide] | ≤ 400 | 1000 to 2500 | 
5 | COc1ccc2[nH]nc(C)c2c1NS(=O)(=O)c1cnn(-c2cc(C(F)(F)F)ccn2)c1 [Compound I-81, N-(5-Methoxy-3-Methyl-1H-Indazol-4-yl)-1-(4-(Trifluoromethyl)Pyridin-2-yl)-1H-Pyrazole-4-Sulfonamide] | ≤ 400 | < 400 | 
6 | COc1ccc2[nH]nc(C)c2c1N(C)S(=O)(=O)c1cnn(-c2cc(C(F)(F)F)ccn2)c1 [Compound I-82, N-(5-Methoxy-3-Methyl-1H-Indazol-4-yl)-N-Methyl-1-(4-(Trifluoromethyl)Pyridin-2-yl)-1H-Pyrazole-4-Sulfonamide] | ≤ 400 | < 400 | 
7 | COc1ccc2cnn(C)c2c1NS(=O)(=O)c1cn(-c2cc(C(F)(F)F)ccn2)nc1C [Compound I-83, N-(6-Methoxy-1-Methyl-1H-Indazol-7-yl)-3-Methyl-1-(4-(Trifluoromethyl)Pyridin-2-yl)-1H-Pyrazole-4-Sulfonamide] | ≤ 400 | < 400 | 
8 | COc1ccc2cnn(C)c2c1NS(=O)(=O)c1cnn(-c2cc(C(F)(F)F)ccn2)c1C [Compound I-84, N-(6-Methoxy-1-Methyl-1H-Indazol-7-yl)-5-Methyl-1-(4-(Trifluoromethyl)Pyridin-2-yl)-1H-Pyrazole-4-Sulfonamide] | ≤ 400 | < 400 | 
9 | Cn1ncc2ccc(Cl)c(NS(=O)(=O)c3cnn(-c4cc(C(F)(F)F)ccn4)c3)c21 [Compound I-85, N-(6-chloro-1-Methyl-1H-Indazol-7-yl)-1-(4-(Trifluoromethyl)Pyridin-2-yl)-1H-Pyrazole-4-Sulfonamide] | ≤ 400 | < 400 | 
10 | Cn1ncc2cccc(NS(=O)(=O)c3cnn(-c4cc(Cl)ccn4)c3)c21 [Compound I-86, 1-(4-Chloropyridin-2-yl)-N-(1-Methyl-1H-Indazol-7-yl)-1H-Pyrazole-4-Sulfonamide] | > 2500 | < 400 | 
11 | COc1ncc2cnn(C)c2c1NS(=O)(=O)c1cnn(-c2ccnc(C(F)(F)F)c2)c1 [Compound I-87, N-(6-Methoxy-1-Methyl-1H-Pyrazolo[4,3-C]Pyridin-7-yl)-1-(2-(Trifluoromethyl)Pyridin-4-yl)-1H-Pyrazole-4-Sulfonamide] | ≤ 400 | < 400 | 
12 | Cc1n[nH]c2cccc(NS(=O)(=O)c3cnn(-c4ccnc(C5CC5)c4)c3)c12 [Compound I-88, 1-(2-Cyclopropylpyridin-4-yl)-N-(3-Methyl-1H-Indazol-4-yl)-1H-Pyrazole-4-Sulfonamide] | > 2500 | < 400 | 
13 | Cc1n[nH]c2cccc(NS(=O)(=O)c3cnn(-c4cc(C5CC5)ccn4)c3)c12 [Compound I-89, 1-(4-Cyclopropylpyridin-2-yl)-N-(3-Methyl-1H-Indazol-4-yl)-1H-Pyrazole-4-Sulfonamide] | > 2500 | < 400 | 
14 | COc1cnc(C(F)(F)F)cc1-n1cc(S(=O)(=O)Nc2c(OC)ccc3cnn(C)c23)cn1 [Compound I-90, N-(6-Methoxy-1-Methyl-1H-Indazol-7-yl)-1-(5-Methoxy-2-(Trifluoromethyl)Pyridin-4-yl)-1H-Pyrazole-4-Sulfonamide] | ≤ 400 | < 400 | 
15 | COc1ccc2cnn(C)c2c1NS(=O)(=O)c1cnn(-c2cc(C(C)(F)F)ccn2)c1 [Compound I-91, 1-(4-(1,1-Difluoroethyl)Pyridin-2-yl)-N-(6-Methoxy-1-Methyl-1H-Indazol-7-yl)-1H-Pyrazole-4-Sulfonamide] | ≤ 400 | < 400 | 
16 | COC1(c2ccnc(-n3cc(S(=O)(=O)Nc4cccc5cnn(C)c45)cn3)c2)CCC1 [Compound I-93, 1-(4-(1-Methoxycyclobutyl)Pyridin-2-yl)-N-(1-Methyl-1H-Indazol-7-yl)-1H-Pyrazole-4-Sulfonamide] | > 2500 | < 400 | 
17 | Cn1ncc2cccc(NS(=O)(=O)c3cnn(-c4cc(C5(F)CCC5)ccn4)c3)c21 [Compound I-94, 1-(4-(1-fluorocyclobutyl)pyridin-2-yl)-N-(1-methyl-1H-indazol-7-yl)-1H-pyrazole-4-sulfonamide] | > 2500 | < 400 | 
18 | Cc1ncn2cccc(NS(=O)(=O)c3cnn(-c4cc(C(F)(F)F)ccn4)c3)c12 [Compound I-95, N-(1-methylimidazo[1,5-a]pyridin-8-yl)-1-(4-(trifluoromethyl)pyridin-2-yl)-1H-pyrazole-4-sulfonamide] | > 2500 | < 400 | 
19 | [2H]C([2H])([2H])Oc1ccc2cnn(C)c2c1NS(=O)(=O)c1cnn(-c2cc(C3CC3)ccn2)c1 [Compound I-96, 1-(4-cyclopropylpyridin-2-yl)-N-(6-(methoxy-d3)-1-methyl-1H-indazol-7-yl)-1H-pyrazole-4-sulfonamide] | ≤ 400 | < 400 | 
20 | [2H]C([2H])([2H])n1ncc2ccc(OC)c(NS(=O)(=O)c3cnn(-c4cc(C5CC5)ccn4)c3)c21 [Compound I-97, 1-(4-Cyclopropylpyridin-2-yl)-N-(6-Methoxy-1-(Methyl-D3)-1H-Indazol-7-yl)-1H-Pyrazole-4-Sulfonamide] | ≤ 400 | < 400 | 
21 | COCCn1ncc2cccc(NS(=O)(=O)c3cnn(-c4cc(C(F)(F)F)ccn4)c3)c21 [Compound I-98, N-(1-(2-Methoxyethyl)-1H-Indazol-7-yl)-1-(4-(Trifluoromethyl)Pyridin-2-yl)-1H-Pyrazole-4-Sulfonamide] | > 2500 | > 2500 | 
22 | COC1(c2ccnc(-n3cc(S(=O)(=O)Nc4cccc5cnn(C)c45)cn3)c2)CC(F)C1 (stereo not drawn) [Compound I-99, 1-(4-(3-fluoro-1-methoxycyclobutyl)pyridin-2-yl)-N-(1-methyl-1H-indazol-7-yl)-1H-pyrazole-4-sulfonamide] | > 2500 | < 400 | 
23 | [2H]C([2H])([2H])n1nc(F)c2cccc(NS(=O)(=O)c3cnn(-c4cc(C(F)(F)F)ccn4)c3)c21 [Compound I-100] | > 2500 | < 400 | 
24 | Cn1ncc2cccc(NS(=O)(=O)c3cnn(-c4cc(C5(O)COC5)ccn4)c3)c21 [Compound I-101, 1-(4-(3-hydroxyoxetan-3-yl)pyridin-2-yl)-N-(1-methyl-1H-indazol-7-yl)-1H-pyrazole-4-sulfonamide] | > 2500 | < 400 | 
25 | COCCn1ncc2cccc(NS(=O)(=O)c3cnn(-c4cc(C5CC5)ccn4)c3)c21 [Compound I-102, 1-(4-cyclopropylpyridin-2-yl)-N-(1-(2-methoxyethyl)-1H-indazol-7-yl)-1H-pyrazole-4-sulfonamide] | > 2500 | > 2500 | 
26 | Cn1ncc2cccc(NS(=O)(=O)c3cnn(-c4cc(N5CCOCC5)ccn4)c3)c21 [Compound I-103, N-(1-methyl-1H-indazol-7-yl)-1-(4-morpholinopyridin-2-yl)-1H-pyrazole-4-sulfonamide] | > 2500 | < 400 | 
27 | Cn1cc2ccc(F)c(NS(=O)(=O)c3cnn(-c4cc(C(F)(F)F)ccn4)c3)c2n1 [Compound I-104, N-(6-fluoro-2-methyl-2H-indazol-7-yl)-1-(4-(trifluoromethyl)pyridin-2-yl)-1H-pyrazole-4-sulfonamide] | > 2500 | > 2500 | 
28 | Cn1nc2c(NS(=O)(=O)c3cnn(-c4cc(C(F)(F)F)ccn4)c3)cccc2c1Cl [Compound I-105, N-(3-chloro-2-methyl-2H-indazol-7-yl)-1-(4-(trifluoromethyl)pyridin-2-yl)-1H-pyrazole-4-sulfonamide] | > 2500 | 1000 to 2500 | 
29 | Cc1n[nH]c2cccc(NS(=O)(=O)c3cnn(-c4ccc(C5CC5)cn4)c3)c12 [Compound I-106, 1-(5-cyclopropylpyridin-2-yl)-N-(3-methyl-1H-indazol-4-yl)-1H-pyrazole-4-sulfonamide] | > 2500 | < 400 | 
30 | Cn1ncc2cccc(NS(=O)(=O)c3cnn(-c4cc(C5(O)CCC5)ccn4)c3)c21 [Compound I-107, 1-(4-(1-Hydroxycyclobutyl)Pyridin-2-yl)-N-(1-Methyl-1H-Indazol-7-yl)-1H-Pyrazole-4-Sulfonamide] | > 2500 |  | < 400
